Reference: US9006464B2, “Substituted cyclopentanes having prostaglandin activity” (Allergan, Inc., priority 2007, dated 2015)

Key:
EP2 [1] = biological target: T1, EP2 (Homo sapiens, UniProt P43116); experiment: EP2 cAMP assay; assay type: cell-based
Source text: (§1) U.S. patent application Ser. No. 11/553,143, filed on Oct. 26, 2006, incorporated by reference herein, describes the methods used to obtain the in vitro data in Table 1 below.

DP = biological target: T2, DP (Homo sapiens, UniProt Q13258); experiment: Other receptors Ca2+ assay, DP; assay type: cell-based; conditions: DP receptor
T2 sequence (Q13258 1-359): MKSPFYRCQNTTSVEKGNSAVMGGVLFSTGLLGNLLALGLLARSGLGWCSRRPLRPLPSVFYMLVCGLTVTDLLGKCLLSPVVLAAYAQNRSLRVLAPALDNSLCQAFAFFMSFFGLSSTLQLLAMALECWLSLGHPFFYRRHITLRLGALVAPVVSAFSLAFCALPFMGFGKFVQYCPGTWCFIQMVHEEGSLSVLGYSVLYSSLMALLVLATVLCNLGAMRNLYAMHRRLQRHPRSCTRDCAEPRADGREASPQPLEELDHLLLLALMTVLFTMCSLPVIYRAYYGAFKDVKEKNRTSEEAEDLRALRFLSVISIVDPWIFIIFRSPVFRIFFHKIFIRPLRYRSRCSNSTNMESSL
Source text: as §1

EP1 = biological target: T3, EP1 (Homo sapiens, UniProt P34995); experiment: Other receptors Ca2+ assay, EP1; assay type: cell-based; conditions: EP1 receptor
T3 sequence (P34995 1-402): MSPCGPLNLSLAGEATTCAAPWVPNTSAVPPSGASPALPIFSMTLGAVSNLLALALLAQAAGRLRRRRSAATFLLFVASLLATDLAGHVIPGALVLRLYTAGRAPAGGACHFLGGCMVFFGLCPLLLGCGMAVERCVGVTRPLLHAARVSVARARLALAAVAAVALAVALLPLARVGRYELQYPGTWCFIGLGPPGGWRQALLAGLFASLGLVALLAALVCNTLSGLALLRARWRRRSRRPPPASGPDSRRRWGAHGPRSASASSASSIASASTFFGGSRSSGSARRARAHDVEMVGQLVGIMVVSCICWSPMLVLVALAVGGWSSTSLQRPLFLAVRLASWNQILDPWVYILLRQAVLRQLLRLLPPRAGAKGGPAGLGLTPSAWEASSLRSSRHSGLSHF
Source text: as §1

EP3 = biological target: T4, EP3 (Homo sapiens, UniProt P43115); experiment: Other receptors Ca2+ assay, EP3; assay type: cell-based; conditions: EP3 receptor
T4 sequence (P43115 1-390): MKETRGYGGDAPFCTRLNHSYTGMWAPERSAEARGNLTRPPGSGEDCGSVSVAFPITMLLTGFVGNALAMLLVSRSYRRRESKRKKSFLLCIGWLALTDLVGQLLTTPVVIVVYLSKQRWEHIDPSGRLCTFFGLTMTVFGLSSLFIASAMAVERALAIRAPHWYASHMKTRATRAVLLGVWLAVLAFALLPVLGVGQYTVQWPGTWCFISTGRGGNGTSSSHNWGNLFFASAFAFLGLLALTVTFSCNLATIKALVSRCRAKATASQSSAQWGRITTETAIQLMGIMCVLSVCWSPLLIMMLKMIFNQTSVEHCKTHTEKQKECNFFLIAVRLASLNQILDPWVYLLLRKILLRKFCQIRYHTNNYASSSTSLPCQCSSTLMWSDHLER
Source text: as §1

EP2 [2] = biological target: T1, EP2; experiment: EP2 Ca2+ signal assay; assay type: cell-based
Source text: as §1

EP4 [3] = biological target: T5, EP4 (Homo sapiens, UniProt P35408); experiment: EP4 binding (Ki)
T5 sequence (P35408 whole entry): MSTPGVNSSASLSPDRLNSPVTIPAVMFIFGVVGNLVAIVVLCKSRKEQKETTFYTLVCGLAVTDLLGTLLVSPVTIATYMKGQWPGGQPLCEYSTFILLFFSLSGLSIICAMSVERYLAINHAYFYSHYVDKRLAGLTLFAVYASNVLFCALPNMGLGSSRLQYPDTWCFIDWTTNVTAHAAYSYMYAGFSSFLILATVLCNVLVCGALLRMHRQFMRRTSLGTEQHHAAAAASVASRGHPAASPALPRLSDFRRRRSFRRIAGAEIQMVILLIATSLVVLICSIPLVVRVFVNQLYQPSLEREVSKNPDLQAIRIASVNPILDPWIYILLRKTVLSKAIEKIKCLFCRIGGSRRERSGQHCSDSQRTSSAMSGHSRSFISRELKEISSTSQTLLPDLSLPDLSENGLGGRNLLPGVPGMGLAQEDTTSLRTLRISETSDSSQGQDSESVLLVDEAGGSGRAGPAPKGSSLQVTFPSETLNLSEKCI
Source text: as §1

EP4 [4] = biological target: T5, EP4; experiment: EP4 Ca2+ signal assay; assay type: cell-based
Source text: as §1

EP2 [5] = biological target: T1, EP2; experiment: EP2 binding (Ki)
Source text: as §1

T1 sequence (P43116 whole entry): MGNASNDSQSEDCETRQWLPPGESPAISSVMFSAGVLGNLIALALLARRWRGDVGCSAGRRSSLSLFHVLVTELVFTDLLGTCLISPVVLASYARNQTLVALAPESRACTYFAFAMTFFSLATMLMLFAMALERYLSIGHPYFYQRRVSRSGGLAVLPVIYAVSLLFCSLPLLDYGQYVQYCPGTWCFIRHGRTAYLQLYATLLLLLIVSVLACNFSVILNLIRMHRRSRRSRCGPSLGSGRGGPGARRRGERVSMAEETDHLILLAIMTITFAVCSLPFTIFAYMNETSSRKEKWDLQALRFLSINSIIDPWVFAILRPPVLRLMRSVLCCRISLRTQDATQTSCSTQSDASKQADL

Structure (SMILES)	EC50 (EP2 [1])	EC50 (DP)	EC50 (EP1)	EC50 (EP3)	EC50 (EP2 [2])	Ki (EP4 [3])	EC50 (EP4 [4])	Ki (EP2 [5])
CCCCCCCCC[C@@H]1[C@@H](CCCc2ccc(C(=O)O)s2)[C@H](Cl)C[C@H]1O [Entry 5, 5-[3-((1R,2R,3R,5R)-5-Chloro-3-hydroxy-2-nonyl-cyclopentyl)-propyl]-thiophene-2-carboxylic acid]	3 nM	–	–	6660 nM	21 nM	1230 nM	> 10000 nM	1.5 nM
CCCCCCCCC=C[C@@H]1[C@@H](CCCc2ccc(C(=O)O)s2)[C@H](Cl)C[C@H]1O [Entry 9, 5-[3-((1R,2R,3R,5R)-5-Chloro-2-dec-1-enyl-3-hydroxy-cyclopentyl)-propyl]-thiophene-2-carboxylic acid]	15 nM	10500 nM	–	–	512 nM	695 nM	34200 nM	18 nM
O=C(O)c1ccc(CCC[C@@H]2[C@@H](CCCCCCCCO)[C@H](O)C[C@H]2Cl)s1 [Entry 10, 5-{3-[(1R,2R,3R,5R)-5-Chloro-3-hydroxy-2-(8-hydroxy-octyl)-cyclopentyl]-propyl}-thiophene-2-carboxylic acid]	< 1 nM	6130 nM	–	–	69 nM	–	> 10000 nM	5 nM
O=C(O)c1ccc(CCC[C@@H]2[C@@H](CCCCCCCO)[C@H](O)C[C@H]2Cl)s1 [Entry 11, 5-{3-[(1R,2R,3R,5R)-5-Chloro-3-hydroxy-2-(7-hydroxy-heptyl)-cyclopentyl]-propyl}-thiophene-2-carboxylic acid]	0.3 nM	1950 nM	–	–	10 nM	1520 nM	23700 nM	9 nM
O=C(O)c1ccc(CCC[C@@H]2[C@@H](C=CCCCCCO)[C@H](O)C[C@H]2Cl)s1 [Entry 13, 5-{3-[(1R,2R,3R,5R)-5-Chloro-3-hydroxy-2-(7-hydroxy-hept-1-enyl)-cyclopentyl]-propyl}-thiophene-2-carboxylic acid]	3.6 nM	253 nM	–	–	46 nM	2390 nM	31400 nM	60 nM
CCCC/C=C/CC[C@@H]1[C@@H](CCCc2ccc(C(=O)O)s2)[C@H](Cl)C[C@H]1O [Entry 18, 5-(3-((1R,2R,3R,5R)-5-chloro-3-hydroxy-2-((E)-oct-3-enyl)cyclopentyl)propyl)thiophene-2-carboxylic acid]	2 nM	2800 nM	4930 nM	593 nM	51 nM	–	713 nM	18 nM
CCCCCCCCCC[C@@H]1[C@@H](CCCc2ccc(C(=O)O)s2)[C@H](Cl)C[C@H]1O [Entry 19, 5-(3-((1R,2R,3R,5R)-5-chloro-2-decyl-3-hydroxycyclopentyl)propyl)thiophene-2-carboxylic acid]	2 nM	–	–	–	1160 nM	7100 nM	> 10000 nM	6 nM

Further compounds by falling EC50 (EP2 [1]), results first:

EC50 (EP2 [1])	EC50 (DP)	EC50 (EP1)	EC50 (EP3)	EC50 (EP2 [2])	Ki (EP4 [3])	EC50 (EP4 [4])	Ki (EP2 [5])	Structure (SMILES)
14 nM	1000 nM	> 10000 nM	–	531 nM	–	–	37 nM	O=C(O)c1ccc(CCC[C@@H]2[C@@H](C=CCCCCCCO)[C@H](O)C[C@H]2Cl)s1 [Entry 6, 5-{3-[(1R,2R,3R,5R)-5-Chloro-3-hydroxy-2-(8-hydroxy-oct-1-enyl)-cyclopentyl]-propyl}-thiophene-2-carboxylic acid]
5 nM	7730 nM	86 nM	421 nM	26 nM	577 nM	42 nM	202 nM	CCCCCC(O)/C=C/[C@@H]1[C@@H](CCCc2ccc(C(=O)O)s2)[C@H](Cl)C[C@H]1O (single isomer, unassigned) [Entry 16]
4 nM	11700 nM	–	3000 nM	15 nM	1110 nM	> 10000 nM	6 nM	CCCCCCCC=C[C@@H]1[C@@H](CCCc2ccc(C(=O)O)s2)[C@H](Cl)C[C@H]1O [Entry 14, 5-[3-((1R,2R,3R,5R)-5-Chloro-3-hydroxy-2-non-1-enyl-cyclopentyl)-propyl]-thiophene-2-carboxylic acid]
